Assays:
[1] = Perceived sweetness intensity (SEV, sucrose equivalent value) of aqueous test samples; assay type: in vivo; details: sucrose equivalent value (SEV 1 = 1% sucrose solution); solution in reverse osmosis water
From the text: In some aspects, minor steviol glycosides can also have specific sensory attributes related to sweetness intensity. Perceived sweetness intensity can be reported as SEV (sucrose equivalent value) with increasing sweetness intensity corresponding to higher SEV. A SEV of 1 corresponds to a 1% sucrose solution, a SEV of 2 corresponds to a 2% sucrose solution, and so on. While perception of sweetness intensity generally increases as the concentration of the minor steviol glycoside increases, the perceived sweetness intensity can reach a plateau despite increasing amounts of the minor steviol glycoside. […]
As a further example, sweetness intensity of the solutions can be tested by a panel of at least four individuals that are experienced in tasting steviol glycoside compositions. […] The panelists also can taste the standard range of 1%, 2%, 3%, 4%, 5%, 6%, 7%, 8%, 9%, 10%, 11%, 12%, 13%, and 14% sucrose solutions ad libitum between tasting test solutions to ensure an accurate match to their recorded SEV values with the standard sucrose solutions. […]
A mixture of monocaffeoylquinic acid and dicaffeoylquinic acid was obtained from yerba mate to provide the sensory modifier in acid form. […] The resulting samples were freeze-dried to provide sensory modifier (SM) in ready-to-use, powder-form. […]

[2] = Roundtable sensory panel of at least four experienced individuals, aqueous test samples (Example 1); assay type: in vivo; set-up: key to Spiky-Rounded: 0—like Reb M/N (spiky); 1—mostly spiky, some rounded; 2—mostly rounded, some spiky; 3—rounded; key to Sweet Linger / Tea/floral/green / Bitter / Typical Reb M/N Attributes (astringency, metallic, powdery, numbing, vapory): 0—none,; 1—trace/faint; 2—slight; 3—moderate; 4—definite; 5—strong; 6—extreme, typical Reb M/N; key to Mouthfeel: 0—water; 1—sucrosey; 2—syrupy; details: solution in reverse osmosis water
Protocol: Solutions were prepared which contained either a steviol glycoside component alone, for use as a control sample, or a steviol glycoside component and sensory modifier in a 2:1 molar ratio, which also corresponds to a 2:1 weight ratio. Solutions were prepared by dissolving the steviol glycoside components and sensory modifiers into reverse osmosis water at the indicated concentrations and/or ratios.
Assays were carried out to characterize the sensory attributes of steviol glycoside compositions having various salt fractions of sensory modifier. Sensory attributes of the solutions were tested by a panel of at least four individuals that are experienced in tasting steviol glycoside compositions. The experienced panelists used a roundtable methodology to assess each sweetness attribute. To test each solution, the experienced panelists dispensed approximately 2 mL of each solution into their own mouths by transfer pipet, dispersed the solution by moving their tongues, and recorded a value for the particular sweetness attribute being tested. Between tasting solutions, the panelists were able to cleanse their palates with water. For each sweetness attribute, the panelists agreed on a descriptive scale with relative intensities assigned for each sweetness attribute and then recorded the values for each sweetness attribute against this.
A mixture of monocaffeoylquinic acid and dicaffeoylquinic acid was obtained from yerba mate to provide the sensory modifier in acid form. Separately from the steviol glycoside component, the mixture of monocaffeoylquinic acid and dicaffeoylquinic acid was adjusted with sodium hydroxide or potassium hydroxide to obtain sodium salts or potassium salts (each corresponding to 100% salt form). The resulting samples were freeze-dried to provide sensory modifier (SM) in ready-to-use, powder-form. A series of samples were prepared from the sensory modifier. For each sample, the final concentration of sensory modifiers was 470-500 ppm (wt/wt), including the contribution of salt mass. Steviol Glycoside Component Examples A and B were used alone as a control sample and also used as the starting point for the sensory modified samples.
For each sample, the flavor profile was compared to the steviol glycoside solution alone as well as to the sample with differing salt composition.

[3] = cited from earlier work

SMILES	SEV [1]	Mouthfeel ([2]; panel score 0-2)	Spiky-Rounded ([2]; panel score 0-3)	Tea/floral/green ([2]; panel score 0-5)	Bitter ([2]; panel score 0-6)	Sweet Linger ([2]; panel score 0-6)	Typical Reb M/N Attributes (astringency, metallic, powdery, numbing, vapory) ([2]; panel score 0-6)	pKa [3]
C=C1C[C@@]23CC[C@H]4[C@@](C)(CCC[C@@]4(C)C(=O)O[C@@H]4O[C@H](CO)[C@@H](O)[C@H](O[C@@H]5O[C@H](CO)[C@@H](O)[C@H](O)[C@H]5O)[C@H]4O[C@@H]4O[C@H](CO)[C@@H](O)[C@H](O)[C@H]4O)[C@@H]2CC[C@]1(O[C@@H]1O[C@H](CO)[C@@H](O)[C@H](O[C@@H]2O[C@H](CO)[C@@H](O)[C@H](O)[C@H]2O)[C@H]1O[C@@H]1O[C@H](CO)[C@@H](O)[C@H](O)[C@H]1O)C3 [Component Example A, rebaudioside M]	9.5	0	0	0	5	4	4	–
O=C(O)[C@]1(O)C[C@@H](O)[C@@H](O)[C@H](O)C1 [quinic acid, D-(−)-quinic acid]	–	–	–	–	–	–	–	around 3.46

From patent publication US12349710B2, “Sensory modifiers” (CARGILL, INCORPORATED, priority 2019, dated 2025)
